Reference: ChEMBL document CHEMBL4616676, “Synthesis and Biological Activity of 2,22-Dimethylene Analogues of 19-Norcalcitriol and Related Compounds” (J Med Chem, 2020)
Active and inactive are the calls of the source. No cut-off for these calls is given here.

Legend:
Rattus norvegicus [1] = assay: Induction of intestinal calcium transport in vitamin D-deficient Sprague-Dawley rat assessed as ratio of serosal to mucosal calcium level at 780 pmol, ip administered as 4 consecutive daily doses measured after 24 hrs post last dose by gut sac assay relative to 1alpha,25-(OH)2D3; format: functional, organism-based
[2] = target: T1, Vitamin D3 receptor (Rattus norvegicus) (UniProt P13053); assay: Potency index, ratio of ED50 for 1-alpha,25-(OH)2D3 to ED50 for test compound for agonist activity at rat recombinant full length VDR expressed in rat ROS 17/2.8 cells transfected with 24-hydroxylase gene promoter assessed as transcriptional activation after 16 hrs by luciferase reporter gene assay; format: cell-based
T1 sequence (whole entry): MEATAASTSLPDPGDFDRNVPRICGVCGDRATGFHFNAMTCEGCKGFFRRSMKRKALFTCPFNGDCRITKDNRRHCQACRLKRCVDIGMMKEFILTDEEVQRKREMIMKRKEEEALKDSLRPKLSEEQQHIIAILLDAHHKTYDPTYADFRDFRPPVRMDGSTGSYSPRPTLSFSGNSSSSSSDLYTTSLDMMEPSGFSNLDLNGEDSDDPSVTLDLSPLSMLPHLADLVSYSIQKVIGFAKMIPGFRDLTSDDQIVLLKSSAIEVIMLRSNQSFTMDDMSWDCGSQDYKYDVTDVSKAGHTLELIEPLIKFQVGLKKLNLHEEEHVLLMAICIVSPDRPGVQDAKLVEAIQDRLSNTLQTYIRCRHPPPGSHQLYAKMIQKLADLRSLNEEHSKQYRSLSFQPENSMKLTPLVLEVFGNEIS

Rattus norvegicus [3] = assay: Induction of bone calcium mobilization in vitamin D-deficient Sprague-Dawley rat assessed as serum calcium level at 87 pmol, ip administered as 4 consecutive daily doses measured after 24 hrs post last dose by spectrometry relative to 1alpha,25-(OH)2D3; format: functional, organism-based
[4] = target: T1, Vitamin D3 receptor (Rattus norvegicus); assay: Potency index, ratio of Ki for 1-alpha,25-(OH)2D3 to Ki for test compound for displacement of [3H]1-alpha,25-(OH)2D3 from rat recombinant full length VDR
Rattus norvegicus [5] = assay: Induction of intestinal calcium transport in vitamin D-deficient Sprague-Dawley rat assessed as ratio of serosal to mucosal calcium level at 87 pmol, ip administered as 4 consecutive daily doses measured after 24 hrs post last dose by gut sac assay relative to 1alpha,25-(OH)2D3; format: functional, organism-based
[6] = target: T2, Vitamin D3 receptor (Homo sapiens) (UniProt P11473); assay: Potency index, ratio of ED50 for 1-alpha,25-(OH)2D3 to ED50 for test compound for agonist activity at VDR in human HL60 cells assessed as induction of cell differentiation of promyelocytes to monocytes after 4 days by NBT reduction assay; format: cell-based; details: HL-60
T2 sequence (whole entry): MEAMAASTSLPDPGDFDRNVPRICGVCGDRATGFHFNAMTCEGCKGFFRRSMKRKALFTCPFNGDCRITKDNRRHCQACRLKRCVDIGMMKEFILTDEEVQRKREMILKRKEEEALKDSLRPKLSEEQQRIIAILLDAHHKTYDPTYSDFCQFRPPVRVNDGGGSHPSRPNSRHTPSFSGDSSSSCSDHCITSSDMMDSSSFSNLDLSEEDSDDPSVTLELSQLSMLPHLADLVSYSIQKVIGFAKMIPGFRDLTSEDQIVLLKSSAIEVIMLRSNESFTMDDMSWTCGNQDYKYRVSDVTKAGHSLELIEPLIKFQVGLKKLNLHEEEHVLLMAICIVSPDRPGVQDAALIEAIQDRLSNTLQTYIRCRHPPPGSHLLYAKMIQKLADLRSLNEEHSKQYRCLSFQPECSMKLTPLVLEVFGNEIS

Rattus norvegicus [7] = assay: Induction of bone calcium mobilization in vitamin D-deficient Sprague-Dawley rat assessed as serum calcium level at 780 pmol, ip administered as 4 consecutive daily doses measured after 24 hrs post last dose by spectrometry relative to 1alpha,25-(OH)2D3; format: functional, organism-based

| Compound | Ratio ED50 [2] | Ratio Ki [4] | Ratio ED50 [6] | Activity (Rattus norvegicus [1]) | Activity (Rattus norvegicus [3]) | Activity (Rattus norvegicus [5]) | Activity (Rattus norvegicus [7]) |
| --- | --- | --- | --- | --- | --- | --- | --- |
| C=C1[C@H](O)CC(=C/C=C2\CCC[C@]3(C)[C@@H]([C@@H](C)C(=C)CCCC(C)(C)O)CC[C@@H]23)C[C@H]1O | 20 | 1 | 50 | Active | Active | Active | Active |
| C=C1[C@H](O)CC(=C/C=C2\CCC[C@]3(C)[C@@H]([C@@H](C)C(=C)CCCC(O)(CC)CC)CC[C@@H]23)C[C@H]1O | 6.7 | 0.5 | 50 | Active | Active | Active | Active |
| C=C1[C@H](O)CC(=C/C=C2\CCC[C@]3(C)[C@@H]([C@@H](C)C(=C)CCC(C)C)CC[C@@H]23)C[C@H]1O | 0.05 | 0.01 | 0.1 | Active | Active | Active | Active |
| C=C1[C@H](O)CC(=C/C=C2\CCC[C@]3(C)[C@@H]([C@@H](C)CCCC(C)(C)O)CC[C@@H]23)C[C@H]1O | 29 | 1 | 25 |  |  |  |  |

The next lines start with results.

| Ratio ED50 [2] | Ratio Ki [4] | Ratio ED50 [6] | Compound | Activity (Rattus norvegicus [1]) | Activity (Rattus norvegicus [3]) | Activity (Rattus norvegicus [5]) | Activity (Rattus norvegicus [7]) |
| --- | --- | --- | --- | --- | --- | --- | --- |
| 6.7 | 1 | 10 | C=C1[C@H](O)CC(=C/C=C2\CCC[C@]3(C)[C@@H]([C@@H](C)C(=C)CCC(O)(CC)CC)CC[C@@H]23)C[C@H]1O | Active | Active | Active | Active |
| 2.5 | 0.5 | 4 | C=C1[C@H](O)CC(=C/C=C2\CCC[C@]3(C)[C@@H]([C@@H](C)C(=C)CCC(C)(C)O)CC[C@@H]23)C[C@H]1O | Active | Active | Active | Active |
| 20 | 1 | 29 | C=C1[C@H](O)CC(=C/C=C2\CCC[C@]3(C)[C@@H]([C@@H](C)C(=C)CCC4(O)CCCC4)CC[C@@H]23)C[C@H]1O | Active | Active | Active | Active |
